Measured values as given in patent US10723741B1, “DNA polymerase IIIC inhibitors and use thereof” (Acurx Pharmaceuticals, LLC, priority 2018, dated 2020).
In brackets after ≈: the same amount, converted by molar mass.

How the values were obtained:
Type in all cases: cell-based
[1] = tested on: Staphylococcus aureus NRS384 (MRSA); assay: Broth microdilution MIC, S. aureus NRS384 (MRSA); details: Staphylococcus aureus; broth microdilution, 37° C., 20 hours; read-out: MIC NRS 384 (MRSA)
From the text: (§1) Bacteria tested are Staphylococcus aureus NRS384 (a methicillin-resistant Staphylococcus aureus, MRSA), Staphylococcus aureus ATCC 29213 (a methicillin-sensitive Staphylococcus aureus, MSSA), Streptococcus pneumoniae ATCC 49619, Enterococcus faecalis ATCC 29212, Enterococcus faecium ATCC 700221 (a vancomycin-resistant enterococcus, VRE), Bacillus subtilis ATCC 6633, and Escherichia coli ATCC 25922.
(§2) Staphylococcus aureus NRS384 was obtained from NARSA (Network on Antimicrobial Resistance in Staphylococcus aureus, now the strain collection is in BEI resources). Other bacterial isolates were from ATCC (The American Type Culture Collection). Upon receiving the bacteria samples from aforementioned institutes, the bacteria were cultured according to the manuals provided by the suppliers. The bacteria were stored in 25% glycerol (final concentration) at −80° C.
(§3) On the day of testing, the compounds were dissolved in pure DMSO (Sigma 276855-1L) to […] as stock. In a v-bottom 96-well plate (Axygen-wipp02280), 20 μl DMSO was added into well 2 to well 12 by manual pipetting. Into well 1, 12.8 μL of compound DMSO stock (20 mg/ml) was added and mixed with 27.2 μl DMSO by pipetting. Two fold serial dilutions were performed by transferring and mixing 20 μl of solution from well 1 to well 2, then well 2 to well 3 and so forth until well 11. The well 12 was loaded with 20 μl DMSO without compounds. This was drug ‘mother plate’. From well 1 to well 12, the drug concentrations in the mother plate were […] in DMSO. A multi-pipette was used to perform the serial dilutions. The concentration may be adjusted according to the potency of the compounds. An Echo® Acoustic liquid handling system may be used to replace manual pipetting to make the daughter plates.
(§4) One day prior to the day of MIC testing, bacterial strains were streaked out from −80° C. glycerol stocks onto MHA plates and incubated at 37° C. for 20 hours. Streptococcus pneumoniae was streaked on blood agar and incubated at 37° C. in 5% CO2. The single colonies were picked by using an inoculation loop (Greiner-731175) and suspended into 5 ml sterile saline. The turbidity of the suspension was adjusted to 0.10 (Siemens MicroScan turbidity meter), equal to ˜1.0×10^8 cfu/ml. The bacterial suspension was diluted 200× in corresponding test medium (Table 1). This was used to inoculate daughter plates.
(§5) For preparing u-bottom 96-well ‘daughter plates’ (Costar 3788), an aliquot of 1 μl solution from mother plate was then replicating transferred into the daughter plate using a multi-pipette.
(§6) An aliquot of 99 μl of the bacterial suspension was inoculated into each well of the daughter plates using a multi-pipette. Each well contained ˜5.0×10^5 cfu/ml bacteria, 1% DMSO and serially diluted compounds at 64, 32, 16, 8, 4, 2, 1, 0.5, 0.25, 0.125, 0.0625 and 0 μg/ml from well 1 to well 12 respectively, in 100 μl corresponding test medium.
(§7) The plates were incubated in ambient atmosphere and in a 37° C. incubator for 20 hours.
(§8) Compounds of the present invention were tested for antibacterial activity against a variety of bacterial organism including Bacillus subtilis, Staphylococcus aureus, Enterococcus faecalis, Enterococcus faecium, Streptococcus pneumoniae and Escherichia coli. […] Compounds described in Examples 2, 44, 53, 56, 90, 134, 212, 213, 214, 218, 222, 304, 305, and 307 had MIC of ≤1 μg/ml against S. aureus NRS 384 (MRSA) (μg/ml) and E. faecium ATCC 700221 (VRE) (μg/ml).

[2] = tested on: Staphylococcus aureus ATCC 29213 (MSSA); assay: Broth microdilution MIC, S. aureus ATCC 29213 (MSSA); details: broth microdilution, 37° C., 20 hours, read-out: MIC S. aureus ATCC 29213 (MSSA)
From the text: as §1, §2, §3, §4, §5, §6, §7, §8

[3] = tested on: Enterococcus faecalis ATCC 29212; assay: Broth microdilution MIC, E. faecalis ATCC 29212; details: ATCC29212, broth microdilution, 37° C., 20 hours, read-out: MIC E. faecalis ATCC 29212
From the text: as §1, §2, §3, §4, §5, §6, §7, §8

[4] = tested on: Enterococcus faecium ATCC 700221 (VRE); assay: Broth microdilution MIC, E. faecium ATCC 700221 (VRE); details: Enterococcus faecium; broth microdilution, 37° C., 20 hours; read-out: MIC E. faecium ATCC 700221 (VRE)
From the text: as §1, §2, §3, §4, §5, §6, §7, §8

[5] = tested on: Streptococcus pneumoniae ATCC 49619; assay: Broth microdilution MIC, S. pneumoniae ATCC 49619; details: ATCC49619, broth microdilution, 37° C., 20 hours, read-out: MIC S. pneumoniae ATCC 49619
From the text: as §1, §2, §3, §4, §5, §6, §7, §8

[6] = tested on: Bacillus subtilis ATCC 6633; assay: Broth microdilution MIC, B. subtilis ATCC 6633; details: ATCC6633, broth microdilution, 37° C., 20 hours, read-out: MIC B. subtilis ATCC 6633
From the text: as §1, §2, §3, §4, §5, §6, §7, §8

[7] = tested on: Escherichia coli ATCC 25922; assay: Broth microdilution MIC, E. coli ATCC 25922 (MHIIB w & w/o 4 mM EDTA); details: broth microdilution, 37° C., 20 hours; for MIC: Escherichia coli, ATCC25922, without EDTA, read-out: MIC E. coli ATCC 25922; for MIC E. coli ATCC 25922 + 4 mM EDTA: with 4 mM EDTA
From the text: as §1, §2, §3, §4, §5, §6, §7, §8

SMILES | MIC [1] [µg/mL] | MIC [2] [µg/mL] | MIC [3] [µg/mL] | MIC [4] [µg/mL] | MIC [5] [µg/mL] | MIC [6] [µg/mL] | MIC [7] [µg/mL] | MIC E. coli ATCC 25922 + 4 mM EDTA [7] [µg/mL]
Cn1ncc2nc(NCc3ccc(Cl)c(F)c3)[nH]c(=O)c21 [Compound 1, 5-((4-chloro-3-fluorobenzyl)amino)-1-methyl-1H-pyrazolo[4,3-d]pyrimidin-7(6H)-one] | 8 (≈ 26 µM) | 8 (≈ 26 µM) | 16 (≈ 52 µM) | 8 (≈ 26 µM) | 4 (≈ 13 µM) | 4 (≈ 13 µM) | > 64 | 32
Cn1ncc2nc(NCc3ccccc3)[nH]c(=O)c21 [Compound 3, 5-(Benzylamino)-1-methyl-1H-pyrazolo[4,3-d]pyrimidin-7(6H)-one] | 64 (≈ 251 µM) | 32 (≈ 125 µM) | 64 (≈ 251 µM) | 32 (≈ 125 µM) | 32 (≈ 125 µM) | 32 (≈ 125 µM) | > 64 | >64
Cn1ncc2nc(NCc3ccccn3)[nH]c(=O)c21 [Compound 4, 1-Methyl-5-((pyridin-2-ylmethyl)amino)-1H-pyrazolo[4,3-d]pyrimidin-7(6H)-one] | > 64 | > 64 | > 64 | > 64 | > 64 | > 64 | > 64 | >64
Cn1ncc2nc(NCc3cccnc3)[nH]c(=O)c21 [Compound 5, 1-Methyl-5-(3-pyridylmethylamino)-6H-pyrazolo[4,3-d]pyrimidin-7-one] | > 64 | > 64 | > 64 | > 64 | > 64 | > 64 | > 64 | >64
Cn1ncc2nc(NCc3ccncc3)[nH]c(=O)c21 [Compound 6, 1-Methyl-5-((pyridin-4-ylmethyl)amino)-1H-pyrazolo[4,3-d]pyrimidin-7(6H)-one] | > 64 | > 64 | > 64 | > 64 | > 64 | > 64 | > 64 | >64
Cn1ncc2nc(NCc3ccc(F)c(F)c3)[nH]c(=O)c21 [Compound 7, 5-((3,4-Difluorobenzyl)amino)-1-methyl-1H-pyrazolo[4,3-d]pyrimidin-7(6H)-one] | 16 (≈ 54.9 µM) | 16 (≈ 54.9 µM) | 16 (≈ 54.9 µM) | 8 (≈ 27.5 µM) | 8 (≈ 27.5 µM) | 8 (≈ 27.5 µM) | > 64 | >64
Cn1ncc2nc(NCCc3ccc(Cl)c(Cl)c3)[nH]c(=O)c21 [Compound 8, 5-((3,4-Dichlorophenethyl)amino)-1-methyl-1H-pyrazolo[4,3-d]pyrimidin-7(6H)-one] | > 64 | > 64 | > 64 | > 64 | > 64 | > 64 | > 64 | >64

Continued, values first:

MIC [1] [µg/mL] | MIC [2] [µg/mL] | MIC [3] [µg/mL] | MIC [4] [µg/mL] | MIC [5] [µg/mL] | MIC [6] [µg/mL] | MIC [7] [µg/mL] | MIC E. coli ATCC 25922 + 4 mM EDTA [7] [µg/mL] | SMILES
> 64 | > 64 | > 64 | > 64 | > 64 | > 64 | > 64 | >64 | Cn1ncc2nc(Nc3ccc(Cl)c(Cl)c3)[nH]c(=O)c21 [Compound 9, 5-((3,4-Dichlorophenyl)amino)-1-methyl-1H-pyrazolo[4,3-d]pyrimidin-7(6H)-one]
> 64 | > 64 | > 64 | > 64 | > 64 | > 64 | > 64 | >64 | Cn1ncc2nc(Nc3ccccc3)[nH]c(=O)c21 [Compound 10, 1-Methyl-5-(phenylamino)-1H-pyrazolo[4,3-d]pyrimidin-7(6H)-one]
> 64 | > 64 | > 64 | > 64 | > 64 | > 64 | > 64 | >64 | Cn1ncc2nc(NCc3ncccn3)[nH]c(=O)c21 [Compound 11, 1-Methyl-5-((pyrimidin-2-ylmethyl)amino)-1H-pyrazolo[4,3-d]pyrimidin-7(6H)-one]
> 64 | > 64 | > 64 | > 64 | > 64 | > 64 | > 64 | >64 | Cn1ncc2nc(NCc3cnccn3)[nH]c(=O)c21 [Compound 12, 1-Methyl-5-((pyrazin-2-ylmethyl)amino)-1H-pyrazolo[4,3-d]pyrimidin-7(6H)-one]
> 64 | > 64 | > 64 | > 64 | > 64 | > 64 | > 64 | >64 | Cn1ncc2nc(NCc3ccc4[nH]ncc4c3)[nH]c(=O)c21 [Compound 13, 5-(((1H-indazol-5-yl)methyl)amino)-1-methyl-1H-pyrazolo[4,3-d]pyrimidin-7(6H)-one]
> 64 | > 64 | > 64 | > 64 | > 64 | > 64 | > 64 | >64 | Cn1ncc2nc(NCc3ccc4[nH]ccc4c3)[nH]c(=O)c21 [Compound 14, 5-(((1H-indol-5-yl)methyl)amino)-1-methyl-1H-pyrazolo[4,3-d]pyrimidin-7(6H)-one]
> 64 | > 64 | > 64 | > 64 | > 64 | > 64 | > 64 | >64 | Cn1ncc2nc(NCc3cscn3)[nH]c(=O)c21 [Compound 15, 1-Methyl-5-((thiazol-4-ylmethyl)amino)-1H-pyrazolo[4,3-d]pyrimidin-7(6H)-one]
> 64 | > 64 | > 64 | > 64 | > 64 | > 64 | > 64 | >64 | Cn1ncc2nc(NCc3cc[nH]n3)[nH]c(=O)c21 [Compound 16, 5-(((1H-pyrazol-3-yl)methyl)amino)-1-methyl-1H-pyrazolo[4,3-d]pyrimidin-7(6H)-one]
> 64 | > 64 | > 64 | > 64 | > 64 | > 64 | > 64 | >64 | Cn1ncc2nc(NCc3cn[nH]n3)[nH]c(=O)c21 [Compound 17, 5-(((2H-1,2,3-triazol-4-yl)methyl)amino)-1-methyl-1H-pyrazolo[4,3-d]pyrimidin-7(6H)-one]
